Measurements from patent US12018014B2, “Pyrrole-substituted indolone derivative or pharmaceutically acceptable salts thereof, and preparation method therefor and application thereof” (SUZHOU GENHOUSE PHARMACEUTICAL CO., LTD., priority 2018, dated 2024).
Marks after values point to notes of the source that are not given here.

Key:
[1] = test system: human MV-4-11 cell strain; assay: MTS in vitro antiproliferative activity; format: cell-based; conditions: MV4-11, 72 hours, read-out: IC50, in vitro proliferation of human MV-4-11 cell strain
Description: The human acute leukemia cell MV-4-11 is an Flt-3 mutant cell strain. The MTS method was used to determine the in vitro antiproliferative activity of the compound against MV-4-11 (derived from ATCC): trypsinizing the cells in the logarithmic growth phase, counting them, resuspending an appropriate number of the cells in the culture solution, adding the culture solution to the 96-well plate by 150 μL per well, and culturing it overnight. After that, 50 μL of 4-fold serially diluted test compound or control culture solution was added to each well, and cultured for 72 hours. The culture solution was drained, and 120 μL of MTS detection solution (100 μL of fresh culture medium and 20 μL of MTS solution) was added to each well, and incubated at 37° C., and the OD490 value was read. Graphpad Prism5 software was used to analyze and process the data to obtain IC50.

PDGFRβ = PDGFRβ (Homo sapiens (Human), UniProt P09619); assay: HTRF in vitro tyrosine kinase inhibition; format: biochemical; conditions: ATP 120 μM, read-out: IC50 against PDGFRβ
Description: (§1) The in vitro inhibitory activity of the compounds on tyrosine kinase was measured by HTRF (Homogeneous Time-Resolved Fluorescence) method.
(§2) The compounds were serially diluted with DMSO in a 96-well plate into 8 solutions of different concentrations with 100 times the final concentration. Then a buffer solution, which was prepared by adding 5 mM MgCl2 and 1 mM DTT to 1-fold Enzymetic buffer provided by the kit, was diluted in a 96-well plate into a solution with 5 times the final concentration.
(§3) The diluted compounds were added to a 384-well plate, respectively, and double wells were provided for each concentration. Then 0.25 ng of kinase was added per well. At the same time, negative and positive wells were provided, and the well to which 5% DMSO of the same volume was added was taken as control. […] Preincubation was carried out for 10 minutes at room temperature. A substrate with a final concentration of 1 μM and ATP with a final concentration of 120 μM were added, and incubated at room temperature for 90 minutes. Then, a fluorescent acceptor (XL665 labeled streptavidin) with a final concentration of 0.0625 μM and 1-fold fluorescent donor (Europium cryptate labeled TK antibody) with a final concentration of 0.0625 μM were added, and incubated at room temperature for 60 minutes. The plates were read by a microplate reader under the conditions of λex=330 nm, λem=620 nm and λem=665 nm. A ratio between the reading at 665 nm and the reading at 620 nm was calculated, and the inhibition rate was calculated according to this ratio.

FLT3 = FLT3 (Homo sapiens (Human), UniProt P36888); assay: HTRF in vitro tyrosine kinase inhibition; format: biochemical; conditions: ATP 120 μM, read-out: IC50 against FLT3
Description: as §1, §2, §3

FLT3 D835Y = FLT3 D835Y (Homo sapiens (Human), UniProt P36888, D835Y); assay: HTRF in vitro tyrosine kinase inhibition; format: biochemical; conditions: ATP 120 μM, read-out: IC50 against FLT3 D835Y
Description: as §1, §2, §3

FLT3-ITD = FLT3-ITD (Homo sapiens, UniProt P36888, ITD); assay: HTRF in vitro tyrosine kinase inhibition; format: biochemical
Description: as §1, §2, §3

KDR (VEGFR2) = KDR (VEGFR2) (Homo sapiens (Human), UniProt P35968); assay: HTRF in vitro tyrosine kinase inhibition; format: biochemical; conditions: ATP 120 μM, read-out: IC50 against KDR
Description: as §1, §2, §3

FGFR1 = FGFR1 (Homo sapiens (Human), UniProt P11362); assay: HTRF in vitro tyrosine kinase inhibition; format: biochemical; conditions: ATP 120 μM, read-out: IC50 against FGFR1
Description: as §1, §2, §3

c-Kit = c-Kit (Homo sapiens (Human), UniProt P10721); assay: HTRF in vitro tyrosine kinase inhibition; format: biochemical; conditions: ATP 120 μM, read-out: IC50 against c-Kit
Description: as §1, §2, §3

ALK = ALK (Homo sapiens (Human), UniProt Q9UM73); assay: HTRF in vitro tyrosine kinase inhibition; format: biochemical; conditions: ATP 120 μM, read-out: IC50 against ALK
Description: as §1, §2, §3

RET = RET (Homo sapiens (Human), UniProt P07949); assay: HTRF in vitro tyrosine kinase inhibition; format: biochemical; conditions: ATP 120 μM, read-out: IC50 against RET
Description: as §1, §2, §3

[2] = test system: MV-4-11 transplanted tumor; assay: MV-4-11 subcutaneously transplanted tumor in nude mice; format: in vivo, Balb/c nude mice; conditions: for Average volume of tumor d15: d15 (start of administration); for Average volume of tumor d15 / Average volume of tumor d36: mean ± S.E, n=6; for Average volume of tumor d36 / anti-tumor effect (in words): 21 days
Description: The formula of calculating the tumor volume (TV) is TV=½×a×b^2, where a represents the long diameter of the tumor and b represents the short diameter of the tumor.

[3] = test system: MV-4-11 (FLT3-ITD) xenograft tumor; conditions: oral 20 mg/kg/d; cited from earlier work
[4] = 29 AML patients, single dose 50 mg to 350 mg; cited from earlier work
[5] = Toxicity and animal's weight in MV-4-11 nude mouse study; conditions: 80 mg/kg intragastric, 21 days
Description: MV-4-11 cells (FLT3-ITD mutant human acute biphenotypic myeloid leukemia cell strain, ATCC) were cultured and expanded in vitro, and the cells in the logarithmic growth phase were collected and resuspended in a serum-free EMEM culture solution, and the cell suspension was injected subcutaneously with a syringe into the armpit of the front right limb of male Balb/c nude mice.

FLT3 phosphorylation = conditions: dose of no less than 200 mg; cited from earlier work
[6] = test system: relapsed or refractory AML; conditions: cited from earlier work
[7] = 10 mg/kg intragastric once a day
[8] = 80 mg/kg intragastric once a day

ALK, sequence (Q9UM73 19-1620, species assumed): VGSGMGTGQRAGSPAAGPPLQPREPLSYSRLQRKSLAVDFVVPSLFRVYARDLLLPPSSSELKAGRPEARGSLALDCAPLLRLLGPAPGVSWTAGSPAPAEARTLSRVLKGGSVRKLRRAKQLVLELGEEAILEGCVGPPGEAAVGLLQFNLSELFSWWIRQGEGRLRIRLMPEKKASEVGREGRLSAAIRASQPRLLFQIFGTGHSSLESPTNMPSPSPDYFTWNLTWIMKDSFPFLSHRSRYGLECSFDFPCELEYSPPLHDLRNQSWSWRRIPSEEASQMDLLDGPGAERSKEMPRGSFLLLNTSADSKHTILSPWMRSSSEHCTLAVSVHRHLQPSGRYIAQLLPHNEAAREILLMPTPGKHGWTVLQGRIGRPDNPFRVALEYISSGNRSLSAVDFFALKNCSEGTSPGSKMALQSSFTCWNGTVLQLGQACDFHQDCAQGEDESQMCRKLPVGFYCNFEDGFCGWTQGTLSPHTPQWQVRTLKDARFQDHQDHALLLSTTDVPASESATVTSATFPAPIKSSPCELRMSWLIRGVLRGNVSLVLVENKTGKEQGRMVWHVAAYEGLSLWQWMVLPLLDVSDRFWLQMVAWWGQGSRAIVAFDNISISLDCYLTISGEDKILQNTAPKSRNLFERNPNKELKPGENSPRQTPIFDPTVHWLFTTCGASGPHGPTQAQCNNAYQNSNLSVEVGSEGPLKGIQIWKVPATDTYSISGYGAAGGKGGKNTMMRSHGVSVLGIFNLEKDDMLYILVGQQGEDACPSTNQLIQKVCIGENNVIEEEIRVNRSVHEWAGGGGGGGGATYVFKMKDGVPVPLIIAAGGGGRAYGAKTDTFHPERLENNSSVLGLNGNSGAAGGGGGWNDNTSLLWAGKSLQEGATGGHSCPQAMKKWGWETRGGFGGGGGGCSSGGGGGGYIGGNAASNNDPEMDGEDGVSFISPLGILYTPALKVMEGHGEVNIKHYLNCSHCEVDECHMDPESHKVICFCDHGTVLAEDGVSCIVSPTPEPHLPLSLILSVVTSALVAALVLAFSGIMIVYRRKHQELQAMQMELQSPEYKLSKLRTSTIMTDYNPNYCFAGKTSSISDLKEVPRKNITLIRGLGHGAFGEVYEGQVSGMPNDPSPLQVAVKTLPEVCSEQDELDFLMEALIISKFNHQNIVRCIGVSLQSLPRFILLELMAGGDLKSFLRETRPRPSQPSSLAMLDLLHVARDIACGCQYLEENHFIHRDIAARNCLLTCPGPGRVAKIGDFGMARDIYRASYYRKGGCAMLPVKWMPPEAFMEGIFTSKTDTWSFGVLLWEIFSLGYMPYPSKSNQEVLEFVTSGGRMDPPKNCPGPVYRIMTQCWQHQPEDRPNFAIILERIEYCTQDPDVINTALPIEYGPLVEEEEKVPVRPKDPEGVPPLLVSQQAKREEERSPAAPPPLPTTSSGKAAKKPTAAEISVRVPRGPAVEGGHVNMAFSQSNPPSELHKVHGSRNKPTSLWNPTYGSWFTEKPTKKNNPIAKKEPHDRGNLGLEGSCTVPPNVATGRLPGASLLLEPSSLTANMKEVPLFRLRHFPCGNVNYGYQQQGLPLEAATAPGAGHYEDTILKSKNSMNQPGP
c-Kit, sequence (P10721 26-976): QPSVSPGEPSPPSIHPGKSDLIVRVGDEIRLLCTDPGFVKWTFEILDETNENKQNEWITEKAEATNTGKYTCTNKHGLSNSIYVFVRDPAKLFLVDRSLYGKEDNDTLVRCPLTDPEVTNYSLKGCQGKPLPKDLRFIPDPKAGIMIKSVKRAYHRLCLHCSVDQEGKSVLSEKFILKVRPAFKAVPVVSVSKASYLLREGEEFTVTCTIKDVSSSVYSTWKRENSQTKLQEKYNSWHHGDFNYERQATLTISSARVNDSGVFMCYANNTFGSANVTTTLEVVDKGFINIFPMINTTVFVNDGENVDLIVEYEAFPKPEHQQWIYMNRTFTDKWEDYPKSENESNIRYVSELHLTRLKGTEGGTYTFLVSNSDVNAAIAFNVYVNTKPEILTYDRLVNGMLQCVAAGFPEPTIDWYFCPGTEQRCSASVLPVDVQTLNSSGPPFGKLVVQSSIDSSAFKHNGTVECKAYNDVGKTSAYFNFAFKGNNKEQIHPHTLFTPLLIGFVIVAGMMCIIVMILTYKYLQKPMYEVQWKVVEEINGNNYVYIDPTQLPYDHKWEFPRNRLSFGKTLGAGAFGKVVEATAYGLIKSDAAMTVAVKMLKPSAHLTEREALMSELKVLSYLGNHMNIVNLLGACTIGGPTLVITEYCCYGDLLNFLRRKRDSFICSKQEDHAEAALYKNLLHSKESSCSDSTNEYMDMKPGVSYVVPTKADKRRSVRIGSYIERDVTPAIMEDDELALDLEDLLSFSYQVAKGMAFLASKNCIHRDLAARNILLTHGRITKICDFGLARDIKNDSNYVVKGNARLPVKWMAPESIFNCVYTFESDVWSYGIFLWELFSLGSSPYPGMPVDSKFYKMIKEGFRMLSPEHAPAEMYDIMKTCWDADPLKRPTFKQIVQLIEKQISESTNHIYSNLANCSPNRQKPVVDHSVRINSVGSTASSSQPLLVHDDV
PDGFRβ, sequence (P09619 33-1106, species assumed): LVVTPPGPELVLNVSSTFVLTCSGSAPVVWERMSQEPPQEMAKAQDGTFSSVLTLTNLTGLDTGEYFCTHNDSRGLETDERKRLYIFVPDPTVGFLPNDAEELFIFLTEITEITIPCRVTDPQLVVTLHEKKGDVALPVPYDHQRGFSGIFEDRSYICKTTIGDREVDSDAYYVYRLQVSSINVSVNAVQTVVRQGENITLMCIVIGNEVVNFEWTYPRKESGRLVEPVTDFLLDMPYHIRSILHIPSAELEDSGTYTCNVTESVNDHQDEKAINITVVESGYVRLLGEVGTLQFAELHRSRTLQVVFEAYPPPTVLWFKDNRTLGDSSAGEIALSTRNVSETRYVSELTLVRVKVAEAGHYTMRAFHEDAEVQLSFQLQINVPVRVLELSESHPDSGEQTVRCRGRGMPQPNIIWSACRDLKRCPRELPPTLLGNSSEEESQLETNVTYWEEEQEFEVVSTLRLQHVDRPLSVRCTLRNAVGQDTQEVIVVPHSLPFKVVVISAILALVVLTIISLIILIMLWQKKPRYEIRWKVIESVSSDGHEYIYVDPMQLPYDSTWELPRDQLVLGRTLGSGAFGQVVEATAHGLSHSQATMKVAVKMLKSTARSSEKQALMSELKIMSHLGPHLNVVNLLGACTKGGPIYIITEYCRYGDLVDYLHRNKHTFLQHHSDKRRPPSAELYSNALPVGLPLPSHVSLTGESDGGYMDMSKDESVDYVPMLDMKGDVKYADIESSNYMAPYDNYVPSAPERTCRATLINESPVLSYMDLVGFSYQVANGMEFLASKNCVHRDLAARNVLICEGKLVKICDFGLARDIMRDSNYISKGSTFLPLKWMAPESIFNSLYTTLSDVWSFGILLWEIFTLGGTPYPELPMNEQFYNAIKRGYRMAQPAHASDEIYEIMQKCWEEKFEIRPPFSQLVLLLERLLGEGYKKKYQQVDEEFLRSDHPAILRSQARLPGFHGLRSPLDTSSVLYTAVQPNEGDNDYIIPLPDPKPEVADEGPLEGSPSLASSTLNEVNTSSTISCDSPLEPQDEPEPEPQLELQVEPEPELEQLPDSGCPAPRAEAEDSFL
FGFR1, sequence (P11362 22-822, species assumed): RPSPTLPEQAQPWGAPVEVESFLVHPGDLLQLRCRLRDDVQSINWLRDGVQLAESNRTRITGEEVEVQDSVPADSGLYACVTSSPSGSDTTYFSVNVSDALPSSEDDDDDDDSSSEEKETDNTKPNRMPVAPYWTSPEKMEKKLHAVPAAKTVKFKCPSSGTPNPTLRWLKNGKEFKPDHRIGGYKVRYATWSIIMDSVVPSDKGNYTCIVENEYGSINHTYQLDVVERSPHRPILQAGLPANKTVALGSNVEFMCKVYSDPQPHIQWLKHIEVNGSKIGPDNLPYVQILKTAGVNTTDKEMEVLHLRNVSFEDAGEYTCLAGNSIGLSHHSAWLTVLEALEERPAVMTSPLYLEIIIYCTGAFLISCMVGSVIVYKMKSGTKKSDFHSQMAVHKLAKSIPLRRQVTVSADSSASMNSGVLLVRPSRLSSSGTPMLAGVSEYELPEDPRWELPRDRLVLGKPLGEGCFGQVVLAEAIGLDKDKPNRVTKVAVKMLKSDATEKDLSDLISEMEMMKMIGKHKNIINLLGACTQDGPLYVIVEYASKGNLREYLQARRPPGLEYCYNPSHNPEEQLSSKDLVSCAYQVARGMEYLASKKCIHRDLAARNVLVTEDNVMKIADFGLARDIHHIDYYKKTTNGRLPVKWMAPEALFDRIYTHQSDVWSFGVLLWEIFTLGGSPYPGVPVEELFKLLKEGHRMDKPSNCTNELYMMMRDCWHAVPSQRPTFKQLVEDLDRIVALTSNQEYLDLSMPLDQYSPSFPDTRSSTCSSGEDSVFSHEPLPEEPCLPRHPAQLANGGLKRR

## Cc1[nH]c(/C=C2\C(=O)Nc3ccc(F)cc32)c(C)c1NC(=O)N1CCN(C)CC1 [Compound 2]
[1]
  IC50: 178 nM

## CCN1CCN(C(=O)Nc2c(C)[nH]c(/C=C3\C(=O)Nc4ccc(F)cc43)c2C)CC1 [Compound 3]
[1]
  IC50: 138 nM

## CNC1CCN(C(=O)Nc2c(C)[nH]c(/C=C3\C(=O)Nc4ccc(F)cc43)c2C)CC1.Cl [Compound 5]
PDGFRβ
  IC50: 190 nM
FLT3
  IC50: 8.8 nM
FLT3 D835Y
  IC50: 17.3 nM
FLT3-ITD
  IC50: < 1.5 nM
KDR (VEGFR2)
  IC50: 891 nM
FGFR1
  IC50: 2340 nM
c-Kit
  IC50: 286 nM
ALK
  IC50: 4900 nM
RET
  IC50: 110 nM
[2]; 2.5 mg/kg group
  Average volume of tumor d15: 167.76 ± 11.65 mm^3
[2]; 2.5 mg/kg intragastric once a day, hydrochloride
  Average volume of tumor d36: 359.18 ± 49.62** mm^3
[2]; 2.5 mg/kg intragastric
  anti-tumor effect (in words): notable inhibition on the growth of the transplanted tumor
[2]; 5 mg/kg group
  Average volume of tumor d15: 167.69 ± 11.70 mm^3
[2]; 5 mg/kg intragastric once a day, hydrochloride
  Average volume of tumor d36: 34.71 ± 4.32** mm^3
[2]; 10 mg/kg group
  Average volume of tumor d15: 167.75 ± 11.59 mm^3
[2]; [7]
  Average volume of tumor d36: 28.41 ± 3.38** mm^3
[2]; 80 mg/kg group
  Average volume of tumor d15: 167.79 ± 13.04 mm^3
[2]; [8]
  Average volume of tumor d36: 19.60 ± 4.21** mm^3
[2]; 160 mg/kg group
  Average volume of tumor d15: 167.59 ± 11.93 mm^3
[2]; 160 mg/kg intragastric once a day, hydrochloride
  Average volume of tumor d36: 20.74 ± 1.38** mm^3
[2]; dose of no less than 5 mg/kg intragastric
  anti-tumor effect (in words): the transplanted tumor subsided
[1]
  IC50: 66 nM

## Cc1[nH]c(/C=C2\C(=O)Nc3ccc(F)cc32)c(C)c1NC(=O)NC1CCN(C)CC1 [Compound 7]
[1]
  IC50: 82.2 nM

## CCN(CC)CCNC(=O)c1c(C)[nH]c(/C=C2\C(=O)Nc3ccc(F)cc32)c1C [Sunitinib]
[3]
  tumor inhibitory effect (in words): significant tumor inhibitory effect
[2]; 10 mg/kg group
  Average volume of tumor d15: 167.64 ± 12.88 mm^3
[2]; [7]
  Average volume of tumor d36: 178.93 ± 13.89** mm^3
[2]; 80 mg/kg group
  Average volume of tumor d15: 167.62 ± 13.27 mm^3
[2]; [8]
  Average volume of tumor d36: 22.17 ± 1.95** mm^3
[1]
  IC50: 74.3 nM
[4]
  patients with drug-related adverse reactions: 31%
[5]
  animal's weight (in words): decreased significantly
FLT3 phosphorylation
  patients with strong inhibitory effect on FLT3 phosphorylation: more than 50%
[6]; 75 mg group
  toxic reaction (in words): grade 4 dose-limiting fatigue and hypertension
[6]; 16 patients, 50 or 75 mg·d^−1
  morphological reaction: 1 case
  partial reaction (PR): 5 cases
